Source: patent US8466281B2, “2,5-disubstituted morpholine orexin receptor antagonists” (Merck Sharp & Dohme Corp., priority 2008, dated 2013)

Columns and labels:
orexin-1 receptor (OX1R) = biological target: T1, orexin-1 receptor (OX1R) (UniProt O43613); assay: Radioligand binding assay, OX1R; conditions: membranes prepared from CHO cells expressing the orexin-1 (OX1) receptor
T1 sequence (O43613 1-425): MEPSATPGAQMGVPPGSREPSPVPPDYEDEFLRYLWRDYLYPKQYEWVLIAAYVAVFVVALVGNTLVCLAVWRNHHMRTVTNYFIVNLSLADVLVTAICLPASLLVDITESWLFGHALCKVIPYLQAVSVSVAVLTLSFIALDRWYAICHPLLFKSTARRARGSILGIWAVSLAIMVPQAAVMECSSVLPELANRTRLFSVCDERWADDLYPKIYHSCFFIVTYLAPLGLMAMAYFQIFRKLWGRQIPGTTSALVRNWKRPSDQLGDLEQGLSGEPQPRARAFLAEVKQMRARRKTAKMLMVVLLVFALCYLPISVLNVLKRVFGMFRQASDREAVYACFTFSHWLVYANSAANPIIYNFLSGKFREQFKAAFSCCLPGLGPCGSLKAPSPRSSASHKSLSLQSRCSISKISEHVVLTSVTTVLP

orexin-2 receptor (OX2R) = biological target: T2, orexin-2 receptor (OX2R) (Homo sapiens, UniProt O43614); assay: Radioligand binding assay, OX2R; conditions: membranes prepared from CHO cells expressing the orexin-2 (OX2) receptor
T2 construct: expressed in transfected cells; host or cells: CHO cells (membranes)
T2 sequence (O43614 1-444): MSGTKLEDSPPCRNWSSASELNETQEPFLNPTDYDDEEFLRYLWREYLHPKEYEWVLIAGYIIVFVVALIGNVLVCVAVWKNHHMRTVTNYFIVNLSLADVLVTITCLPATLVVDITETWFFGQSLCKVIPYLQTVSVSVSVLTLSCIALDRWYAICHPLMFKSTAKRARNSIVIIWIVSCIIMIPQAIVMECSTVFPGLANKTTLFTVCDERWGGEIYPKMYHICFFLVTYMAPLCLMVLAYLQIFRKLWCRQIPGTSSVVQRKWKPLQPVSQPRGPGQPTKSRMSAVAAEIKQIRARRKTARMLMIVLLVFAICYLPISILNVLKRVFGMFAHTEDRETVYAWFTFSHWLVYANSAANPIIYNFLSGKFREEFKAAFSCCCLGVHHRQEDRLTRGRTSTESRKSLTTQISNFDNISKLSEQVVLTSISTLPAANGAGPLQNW

| SMILES | Ki (orexin-1 receptor (OX1R)) [nM] | Ki (orexin-2 receptor (OX2R)) [nM] |
| --- | --- | --- |
| Cc1ccc(-n2nccn2)c(C(=O)N2C[C@H](COc3nccc4ccccc34)OC[C@H]2C)c1 [A-9, 1-({(2R,5R)-5-methyl-4-[5-methyl-2-(2H-1,2,3-triazol-2-yl)benzoyl]morpholin-2-yl}methoxy)isoquinoline] | 23 | – |
| Cc1ccc(-n2nccn2)c(C(=O)N2C[C@H](COc3ccc(Br)cn3)OC[C@H]2C)c1 [A-10] | 21 | 1.3 |
| Cc1ccc(-n2nccn2)c(C(=O)N2C[C@H](COc3nccc4ccccc34)OC[C@H]2C)c1 [A-11, 1-({(2R,5R)-5-methyl-4-[5-methyl-2-(2H-1,2,3-triazol-2-yl)benzoyl]morpholin-2-yl}methoxy)isoquinoline] | 2.2 | – |
| Cc1ccc(-n2nccn2)c(C(=O)N2C[C@H](COc3ccnc4ccccc34)OC[C@H]2C)c1 [A-12, 4-({(2R,5R)-5-methyl-4-[5-methyl-2-(2H-1,2,3-triazol-2-yl)benzoyl]morpholin-2-yl}methoxy)quinoline] | 17 | 39 |
| Cc1ccc(-n2nccn2)c(C(=O)N2C[C@H](COc3ncccc3C)OC[C@H]2C)c1 [A-13, (2R,5R)-5-methyl-2-{[(3-methylpyridin-2-yl)oxy]methyl}-4-[5-methyl-2-(2H-1,2,3-triazol-2-yl)benzoyl]morpholine] | 720 | 8.3 |
